Measurements reported in US20230372498A1, “PLK1 SELECTIVE DEGRADATION INDUCING COMPOUND” (UPPTHERA, priority 2020, published 2023).

Biological target: T1, PLK1 (Homo sapiens, UniProt P53350)
T1 construct: endogenous in cells; host or cells: HeLa
Assay: PLK1 protein degradation in HeLa cells, Western blotting (PLK1/GAPDH ratio)
Type: cell-based
Details: 6 hours compound incubation; for DC50: measured only if the grade of Dmax is A or B; for Dmax: thymidine block and release, 10 points three-fold from 3 μM, PLK1 to GAPDH ratio, read-out: Dmax
How it was run: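 Thymidine-synchronised HeLa cells (2 mM, 24 h) released 4 h into complete medium, then treated 6 h with compound in 10-point 3-fold dilutions from 3 μM. RIPA lysates (15 μg protein) run on SDS-PAGE; PLK1 Western blot normalised to GAPDH.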

T1 sequence (P53350 whole entry): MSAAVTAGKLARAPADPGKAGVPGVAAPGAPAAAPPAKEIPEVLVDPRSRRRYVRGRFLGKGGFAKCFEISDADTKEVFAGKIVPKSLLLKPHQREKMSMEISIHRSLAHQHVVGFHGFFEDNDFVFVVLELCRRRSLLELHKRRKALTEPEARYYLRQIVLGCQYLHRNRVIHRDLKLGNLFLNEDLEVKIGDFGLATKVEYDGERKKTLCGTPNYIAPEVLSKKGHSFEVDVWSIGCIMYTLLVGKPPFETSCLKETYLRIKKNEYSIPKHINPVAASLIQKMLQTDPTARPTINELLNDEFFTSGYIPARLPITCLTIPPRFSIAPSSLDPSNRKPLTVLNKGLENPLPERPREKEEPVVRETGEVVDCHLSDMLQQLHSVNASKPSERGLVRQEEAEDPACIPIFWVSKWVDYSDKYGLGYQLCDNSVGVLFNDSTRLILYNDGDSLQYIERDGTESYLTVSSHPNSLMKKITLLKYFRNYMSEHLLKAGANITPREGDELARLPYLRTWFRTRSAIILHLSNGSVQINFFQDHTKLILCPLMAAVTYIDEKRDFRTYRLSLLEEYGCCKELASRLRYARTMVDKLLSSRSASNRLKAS

SMILES	DC50 [nM]	Dmax [%]
COc1cc(C(=O)NCCCCCc2cccc3c2CN(C2CCC(=O)NC2=O)C3=O)c(F)cc1Nc1ncc2c(n1)N(C1CCCC1)CC(F)(F)C(=O)N2C (centres unmarked) [Example 165, 4-((9-cyclopentyl-7,7-difluoro-5-methyl-6-oxo-6,7,8,9-tetrahydro-5H-pyrimido[4,5-b][1,4]diazepin-2-yl)amino)-N-(5-(2-(2,6-dioxopiperidin-3-yl)-1-oxoisoindolin-4-yl)pentyl)-2-fluoro-5-methoxybenzamide]		< 60
COc1cc(C(=O)NCCCCCCCc2cccc3c2CN(C2CCC(=O)NC2=O)C3=O)c(F)cc1Nc1ncc2c(n1)N(C1CCCC1)CC(F)(F)C(=O)N2C (centres unmarked) [Example 166, 4-((9-cyclopentyl-7,7-difluoro-5-methyl-6-oxo-6,7,8,9-tetrahydro-5H-pyrimido[4,5-b][1,4]diazepin-2-yl)amino)-N-(7-(2-(2,6-dioxopiperidin-3-yl)-1-oxoisoindolin-4-yl)heptyl)-2-fluoro-5-methoxybenzamide]		60 to 80
COc1cc(C(=O)NCCOCCOCCNc2cccc3c2C(=O)N(C2CCC(=O)NC2=O)C3=O)c(F)cc1Nc1ncc2c(n1)N(C(C)C)CC(F)(F)C(=O)N2C (centres unmarked) [Example 167, 4-((7,7-difluoro-9-isopropyl-5-methyl-6-oxo-6,7,8,9-tetrahydro-5H-pyrimido[4,5-b][1,4]diazepin-2-yl)amino)-N-(2-(2-(2-((2-(2,6-dioxopiperidin-3-yl)-1,3-dioxoisoindolin-4-yl)amino)ethoxy)ethoxy)ethyl)-2-fluoro-5-methoxybenzamide]		60 to 80
CN1C(=O)C(F)(F)CN(C2CCCC2)c2nc(Nc3ccc(C(=O)NCCCOCCCOCCNc4cccc5c4C(=O)N(C4CCC(=O)NC4=O)C5=O)cc3)ncc21 (centres unmarked) [Example 170, 4-((9-cyclopentyl-7,7-difluoro-5-methyl-6-oxo-6,7,8,9-tetrahydro-5H-pyrimido[4,5-b][1,4]diazepin-2-yl)amino)-N-(3-(3-(2-((2-(2,6-dioxopiperidin-3-yl)-1,3-dioxoisoindolin-4-yl)amino)ethoxy)propoxy)propyl)benzamide]		≥ 80
COc1cc(C(=O)NCCCOCCCOCCNc2cccc3c2CN(C2CCC(=O)NC2=O)C3=O)ccc1Nc1ncc2c(n1)N(C1CCCC1)CC(F)(F)C(=O)N2C (centres unmarked) [Example 171, 4-((9-cyclopentyl-7,7-difluoro-5-methyl-6-oxo-6,7,8,9-tetrahydro-5H-pyrimido[4,5-b][1,4]diazepin-2-yl)amino)-N-(3-(3-(2-((2-(2,6-dioxopiperidin-3-yl)-1-oxoisoindolin-4-yl)amino)ethoxy)propoxy)propyl)-3-methoxybenzamide]		≥ 80
COc1cc(C(=O)N[C@H]2CCN(C(=O)CCN3CCN(c4ccc5c(c4)C(=O)N(C4CCC(=O)NC4=O)C5=O)CC3)C2)ccc1Nc1ncc2c(n1)N(C1CCCC1)CC(F)(F)C(=O)N2C (stereo partly drawn) [Example 174, 4-((9-cyclopentyl-7,7-difluoro-5-methyl-6-oxo-6,7,8,9-tetrahydro-5H-pyrimido [4,5-b][1,4]diazepin-2-yl)amino)-N-((3S)-1-(3-(4-(2-(2,6-dioxopiperidin-3-yl)-1,3-dioxoisoindolin-5-yl)piperazin-1-yl)propanoyl)pyrrolidin-3-yl)-3-methoxybenzamide]		≥ 80

Second part, the compound after the results:

DC50 [nM]	Dmax [%]	SMILES
≤ 50	≥ 80	COc1cc(C(=O)NC2CCN(CCOCCCNc3cccc4c3C(=O)N(C3CCC(=O)NC3=O)C4=O)C2)c(F)cc1Nc1ncc2c(n1)N(C1CCCC1)CC(F)(F)C(=O)N2C (centres unmarked) [Example 110, 4-((9-cyclopentyl-7,7-difluoro-5-methyl-6-oxo-6,7,8,9-tetrahydro-5H-pyrimido[4,5-b][1,4]diazepin-2-yl)amino)-N-(1-(2-(3-((2-(2,6-dioxopiperidin-3-yl)-1,3-dioxoisoindolin-4-yl)amino)propoxy)ethyl)pyrrolidin-3-yl)-2-fluoro-5-methoxybenzamide]
≤ 50	≥ 80	COc1cc(C(=O)NC2CCN(CCCOCCCNc3cccc4c3C(=O)N(C3CCC(=O)NC3=O)C4=O)C2)c(F)cc1Nc1ncc2c(n1)N(C1CCCC1)CC(F)(F)C(=O)N2C (centres unmarked) [Example 111, 4-((9-cyclopentyl-7,7-difluoro-5-methyl-6-oxo-6,7,8,9-tetrahydro-5H-pyrimido[4,5-b][1,4]diazepin-2-yl)amino)-N-(1-(3-(3-((2-(2,6-dioxopiperidin-3-yl)-1,3-dioxoisoindolin-4-yl)amino)propoxy)propyl)pyrrolidin-3-yl)-2-fluoro-5-methoxybenzamide]
≤ 500	60 to 80	COc1cc(C(=O)N[C@H]2CCN(CCOCCNC(=O)CNc3cccc4c3C(=O)N(C3CCC(=O)NC3=O)C4=O)C2)c(F)cc1Nc1ncc2c(n1)N(C1CCCC1)CC(F)(F)C(=O)N2C (stereo partly drawn) [Example 112, 4-((9-cyclopentyl-7,7-difluoro-5-methyl-6-oxo-6,7,8,9-tetrahydro-5H-pyrimido[4,5-b][1,4]diazepin-2-yl)amino)-N-((3S)-1-(2-(2-(2-((2-(2,6-dioxopiperidin-3-yl)-1,3-dioxoisoindolin-4-yl)amino)acetamido)ethoxy)ethyl)pyrrolidin-3-yl)-2-fluoro-5-methoxybenzamide]
	≥ 80	COc1cc(C(=O)NCCOCCOCCNc2cccc3c2C(=O)N(C2CCC(=O)NC2=O)C3=O)ccc1Nc1ncc2c(n1)N(C1CCCC1)CC(F)(F)C(=O)N2C (centres unmarked) [Example 168, 4-((9-cyclopentyl-7,7-difluoro-5-methyl-6-oxo-6,7,8,9-tetrahydro-5H-pyrimido[4,5-b][1,4]diazepin-2-yl)amino)-N-(2-(2-(2-((2-(2,6-dioxopiperidin-3-yl)-1,3-dioxoisoindolin-4-yl)amino)ethoxy)ethoxy)ethyl)-3-methoxybenzamide]
	≥ 80	COc1cc(C(=O)NCCCOCCCOCCNc2cccc3c2C(=O)N(C2CCC(=O)NC2=O)C3=O)ccc1Nc1ncc2c(n1)N(C1CCCC1)CC(F)(F)C(=O)N2C (centres unmarked) [Example 169, 4-((9-cyclopentyl-7,7-difluoro-5-methyl-6-oxo-6,7,8,9-tetrahydro-5H-pyrimido[4,5-b][1,4]diazepin-2-yl)amino)-N-(3-(3-(2-((2-(2,6-dioxopiperidin-3-yl)-1,3-dioxoisoindolin-4-yl)amino)ethoxy)propoxy)propyl)-3-methoxybenzamide]
	≥ 80	COc1cc(C(=O)NC2CCN(CCOCCOCCOCCOCCOCCOCCOCCNc3cccc4c3C(=O)N(C3CCC(=O)NC3=O)C4=O)CC2)c(F)cc1Nc1ncc2c(n1)N(C1CCCC1)CC(F)(F)C(=O)N2C (centres unmarked) [Example 172, 4-((9-cyclopentyl-7,7-difluoro-5-methyl-6-oxo-6,7,8,9-tetrahydro-5H-pyrimido[4,5-b][1,4]diazepin-2-yl)amino)-N-(1-(23-((2-(2,6-dioxopiperidin-3-yl)-1,3-dioxoisoindolin-4-yl)amino)-3,6,9,12,15,18,21-heptaoxatricosyl)piperidin-4-yl)-2-fluoro-5-methoxybenzamide]
	≥ 80	COc1cc(C(=O)N[C@H]2CCN(C(=O)CCCCN3CCN(c4cccc5c4C(=O)N(C4CCC(=O)NC4=O)C5=O)CC3)C2)c(F)cc1Nc1ncc2c(n1)N(C1CCCC1)CC(F)(F)C(=O)N2C (stereo partly drawn) [Example 173, 4-((9-cyclopentyl-7,7-difluoro-5-methyl-6-oxo-6,7,8,9-tetrahydro-5H-pyrimido[4,5-b][1,4]diazepin-2-yl)amino)-N-((3S)-1-(5-(4-(2-(2,6-dioxopiperidin-3-yl)-1,3-dioxoisoindolin-4-yl)piperazin-1-yl)pentanoyl)pyrrolidin-3-yl)-2-fluoro-5-methoxybenzamide]
	≥ 80	COc1cc(C(=O)N[C@H]2CCN(C(=O)CCCN3CC4(C3)CN(c3cccc5c3C(=O)N(C3CCC(=O)NC3=O)C5=O)C4)C2)c(F)cc1Nc1ncc2c(n1)N(C1CCCC1)CC(F)(F)C(=O)N2C (stereo partly drawn) [Example 175, 4-((9-cyclopentyl-7,7-difluoro-5-methyl-6-oxo-6,7,8,9-tetrahydro-5H-pyrimido[4,5-b][1,4]diazepin-2-yl)amino)-N-((3S)-1-(4-(6-(2-(2,6-dioxopiperidin-3-yl)-1,3-dioxoisoindolin-4-yl)-2,6-diazaspiro[3.3]heptan-2-yl)butanoyl)pyrrolidin-3-yl)-2-fluoro-5-methoxybenzamide]
